Experimental data from publication PMC9445877, “Blockade of TMPRSS2-mediated priming of SARS-CoV-2 by lactoferricin” (Frontiers in Immunology, 2022).
Entries after “also recorded” stand apart in the source; their conditions may differ. Where two headings read alike, the source gives them in different places. Peptide text beside a SMILES is read from it.

Experiments:
Vero cells = test: Cytotoxicity assay in Vero cells (EZ4U); type: cell-based, African green monkey; details: 48 h, without virus, 20 and 40 µg/mL, DMEM/2% FCS, 3 experiments, 80% viability cut-off
Protocol: Vero cells were seeded into 96-well flat-bottom plates (1×10^4 cells, 80 µl/well) in DMEM medium supplemented with 10% FCS, antibiotics, and non-essential amino acids. On the day of the assay, the medium was exchanged for the reduced serum supplemented DMEM (DMEM/2% FCS) with the peptides or a vehicle only at the designated concentration (100 µl/well). As a positive control, 30% DMSO in DMEM/2% FCS was used. Negative control cells were incubated in DMEM/2% FCS only. Two days (48 h) later, cell viability was assessed as we did previously ([52]) using the EZ4U cell proliferation and cytotoxicity assay substrate (Biomedica Immunoassays, Vienna, Austria).

TMPRSS2 = molecular target: T1, TMPRSS2 (Homo sapiens, UniProt O15393); test: In vitro proteolysis assay, TMPRSS2, fluorogenic substrate Boc-Gln-Ala-Arg-AMC; type: biochemical; details: 37°C, Boc-Gln-Ala-Arg-AMC; for inhibition of proteolytic activity of TMPRSS2 (in words): Tris-HCl buffer
T1 construct: TMPRSS2 (25 nM; recombinant protein produced in mammalian cells; #MBS1193731, MyBioSource, San Diego, CA); purchased MyBioSource, San Diego, CA #MBS1193731; host or cells: mammalian cells
Protocol: (§1) Figure 1 Effect of LF and the LF-derived peptides pLF1-pLF3 on the activity of serine proteases. Proteolytic activities of purified TMPRSS2 (A), plasmin (B), elastase (C), and trypsin (D) were measured with or without peptides pLF1, pLF2, pLF3, LF or the control peptide pCTR at 37°C in Tris-HCl buffer using the fluorogenic substrate Boc-Gln-Ala-Arg-AMC. The reaction was monitored using an ELISA reader for the indicated time intervals.
(§2) The proteolytic activities of plasmin (10 nM; from human plasma; #10602361001, Roche Diagnostics GmbH, Mannheim, Germany), trypsin (10 nM; from bovine pancreas; #T1005, Sigma-Aldrich, St. Louis, MO), elastase (20 nM; from porcine pancreas; #E1250, Sigma-Aldrich) and TMPRSS2 (25 nM; recombinant protein produced in mammalian cells; #MBS1193731, MyBioSource, San Diego, CA) were measured in a Nunc black fluorescence-based cell assay plate (Sigma-Aldrich) in Tris-HCl buffer (20 mM, pH 8.0, 150 mM NaCl). The proteases were incubated with or without inhibitory and control compounds at 37°C for 30 min, and then the fluorogenic substrate (Boc-Gln-Ala-Arg-AMC; 25 µM; #BML-P237, ENZO Life Sciences, Lörrach, Germany) was added. The reaction was measured using an ELISA plate reader (Synergy H1 BioTek microplate reader, Winooski, Vermont, U.S., or TECAN GENios, GMI, USA) under the excitation wavelength of 380 nm and the emission wavelength of 460 nm at the indicated time points.

plasmin = molecular target: T2, plasmin (Homo sapiens, UniProt P00747); test: In vitro proteolysis assay, plasmin; type: biochemical; details: 37°C; for inhibition of proteolytic activity of plasmin (in words): plasmin 10 nM, Tris-HCl buffer, Boc-Gln-Ala-Arg-AMC
T2 construct: purchased Roche Diagnostics GmbH, Mannheim, Germany #10602361001; host or cells: human plasma
Protocol: as §1, §2
Optionally ( Figure 1B , inset), purified active plasmin (10 mU/mL) was coated in PBS directly on a 96-well Falcon transparent plate for 2 h at 37°C. The wells were then blocked with 1% BSA, washed, and then incubated in PBS at 37°C with the chromogenic plasmin substrate S-2251 (0.8 mM, D-Val-Leu-Lys-pNA, CoaChrom Diagnostica). In this case, the absorbance change at 405 nm was monitored at different time points by using an ELISA plate reader (SpectraMax M5, Molecular Devices).

[1] = tested on: SARS-CoV-2 infection, Vero cells; type: cell-based, SARS-CoV-2 (African green monkey cells); details: n = 3
SARS-CoV-2 = type: cell-based; details: for SARS-CoV-2 infection of permissive cells (in words): summary statement
elastase = test: In vitro proteolysis assay, elastase; type: biochemical, porcine; details: elastase 20 nM; 37°C, Tris-HCl buffer, Boc-Gln-Ala-Arg-AMC
Protocol: as §1
as §2, with “The proteases were incubated with or without inhibitory and control compounds at 37°C for 30 min, and then the fluorogenic substrate (Boc-Gln-Ala-Arg-AMC; 25 µM; #BML-P237, ENZO Life Sciences, Lörrach, Germany) was added.” left out

[2] = tested on: SARS-CoV-2 S protein cleavage by TMPRSS2; test: SARS-CoV-2 S protein digestion assay with TMPRSS2 (immunoblot); type: biochemical; details: S protein 1 µg, TMPRSS2 25 nM, 120 min, 37°C, Tris-HCl 20 mM pH 7.5, 150 mM NaCl, n = 4

T1 sequence (O15393 256-492 limits assumed): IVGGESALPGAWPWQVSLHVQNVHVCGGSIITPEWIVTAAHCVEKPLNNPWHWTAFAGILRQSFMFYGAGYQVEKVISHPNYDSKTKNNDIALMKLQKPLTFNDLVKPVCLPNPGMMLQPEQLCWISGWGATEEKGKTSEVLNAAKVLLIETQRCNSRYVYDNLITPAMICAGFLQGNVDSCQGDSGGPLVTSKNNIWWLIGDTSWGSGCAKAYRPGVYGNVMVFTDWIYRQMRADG
T1 sequence (O15393 106-255 limits assumed): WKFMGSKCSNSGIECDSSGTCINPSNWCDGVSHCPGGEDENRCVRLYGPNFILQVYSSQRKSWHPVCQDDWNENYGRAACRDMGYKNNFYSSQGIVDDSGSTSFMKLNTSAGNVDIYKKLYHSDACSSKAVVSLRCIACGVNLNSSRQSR
T2 sequence (P00747 581-810 limits assumed): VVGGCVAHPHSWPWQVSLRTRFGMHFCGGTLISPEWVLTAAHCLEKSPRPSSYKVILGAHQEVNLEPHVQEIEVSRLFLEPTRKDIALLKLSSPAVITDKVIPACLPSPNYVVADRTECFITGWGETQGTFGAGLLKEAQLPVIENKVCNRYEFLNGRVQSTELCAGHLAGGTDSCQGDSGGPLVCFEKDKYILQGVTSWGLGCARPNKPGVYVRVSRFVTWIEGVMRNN
T2 sequence (P00747 97-580 limits assumed): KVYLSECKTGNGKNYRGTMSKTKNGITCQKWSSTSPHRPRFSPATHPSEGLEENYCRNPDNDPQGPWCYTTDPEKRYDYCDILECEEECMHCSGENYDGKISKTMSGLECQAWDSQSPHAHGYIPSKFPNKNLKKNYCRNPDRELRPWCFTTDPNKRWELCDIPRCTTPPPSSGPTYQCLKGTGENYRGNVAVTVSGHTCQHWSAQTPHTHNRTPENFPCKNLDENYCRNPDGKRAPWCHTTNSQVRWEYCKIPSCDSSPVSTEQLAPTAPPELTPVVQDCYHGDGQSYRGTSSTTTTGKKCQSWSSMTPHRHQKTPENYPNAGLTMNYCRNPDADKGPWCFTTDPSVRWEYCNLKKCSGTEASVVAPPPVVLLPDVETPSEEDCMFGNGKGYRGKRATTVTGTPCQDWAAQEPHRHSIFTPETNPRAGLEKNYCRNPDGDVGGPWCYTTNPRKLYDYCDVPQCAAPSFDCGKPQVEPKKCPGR

In the case of `C[S+](C)[O-]` [30% DMSO], the “cytotoxicity, Vero cells (in words)” value (Vero cells) is reported as “significantly (p***<0.0005) affected viability of Vero cells”.
For `CC(C)[C@H](NC(=O)[C@H](C)NC(=O)[C@H](CS)NC(=O)[C@H](Cc1c[nH]c2ccccc12)NC(=O)[C@H](CCC(N)=O)NC(=O)[C@@H](NC(=O)[C@H](CO)NC(=O)[C@H](CCCNC(=N)N)NC(=O)[C@H](CCCNC(=N)N)NC(=O)[C@H](CCCNC(=N)N)NC(=O)CN)C(C)C)C(=O)N[C@@H](CO)C(=O)N[C@@H](CCC(N)=O)C(=O)N1CCC[C@H]1C(=O)N[C@@H](CCC(=O)O)C(=O)N[C@@H](C)C(=O)N[C@H](C(=O)N[C@@H](CCCCN)C(=O)N[C@@H](CS)C(=O)O)[C@@H](C)O` [pLF1] (H-GRRRSVQWCAVSQPEATKC-OH), the “maximum inhibition of TMPRSS2 (plateau)” value (TMPRSS2; at 40 - 80 µg/mL) was ~ 40% and the IC50 (plasmin; Figure 1B inset: plasmin 10 mU/mL coated in PBS, chromogenic substrate S-2251 0.8 mM, PBS, absorbance 405 nm, relative IC50, 4PL fit, experiments at least three times, read-out: half-maximum inhibitory concentration (IC50), plasmin (converted)) was 3.19 µM.
For “GRRRRSVQWCAVSQPEATKCFQWQRNMRKVRGPPVSCIKRDSPIQCIQA [LFC, natural peptide of 49 amino acids from the N-terminus of human LF, produced by pepsin cleavage]”, the “inhibition of proteolytic activity of TMPRSS2 (in words)” value (from here on “inhibition … of TMPRSS2 (in words)”) (TMPRSS2) was “inhibitory effect on TMPRSS2 comparable to that of pLF1”, the “inhibition … of TMPRSS2 (in words)” value (TMPRSS2; listed as lactoferricin) was “significantly inhibited” and the “infection rate of replication-competent SARS-CoV-2 in Vero cells (in words)” value ([1]; 80 µg/mL, pre-incubation approx. 1 h) was “reduced the infection rate”. The “inhibition of SARS-CoV-2 infection in Vero and Calu-3 cells” value (SARS-CoV-2; Vero and Calu-3 cells, summary statement in Discussion) was 40-50%, the “SARS-CoV-2 infection of permissive cells (in words)” value (SARS-CoV-2) was “inhibits cell entry of SARS-CoV-2 through blocking TMPRSS2-mediated virus priming” and the “SARS-CoV-2 infection of permissive cells (in words)” value (SARS-CoV-2; listed as lactoferricin) was “significantly inhibited”.
In the case of “NFRTKSCPLELAKELKLCS [pCTR, negative control peptide, a scrambled variant of pLF3, reference compound]”, the “inhibition … of TMPRSS2 (in words)” value (TMPRSS2) is reported as “neither full-length LF nor pCTR inhibited; also recorded: neither full-length LF nor other tested peptides derived from LF, nor the control peptide pCTR, significantly reduced”, the “inhibition of proteolytic activity of plasmin (in words)” value (plasmin) is reported as “neither full-length LF nor a control peptide (pCTR), was able to inhibit; also recorded: neither full-length LF nor other tested peptides derived from LF, nor the control peptide pCTR, significantly reduced” and the “inhibition of proteolytic activity of elastase (in words)” value (elastase) is reported as “neither full-length LF nor other tested peptides derived from LF, nor the control peptide pCTR, significantly reduced”. For the same compound, the “cleavage of SARS-CoV-2 S protein by TMPRSS2 (in words)” value [2] was “no such effect was seen” and the “inhibition of SARS-CoV-2 infection, Vero cells (in words)” value ([1]; pre-incubation 40-60 min) was “did not show any inhibitory potential”.
In the case of aprotinin [reference compound], the “inhibition … of TMPRSS2 (in words)” value (TMPRSS2) is reported as “blunted the proteolytic activity of both proteases” and the “inhibition of proteolytic activity of plasmin (in words)” value (plasmin) is reported as “blunted the proteolytic activity of both proteases”.
